Reference: patent US20100190848A1, “Cysteine-protease inhibitors” (UNIVERSITAT JAUME I, priority 2007, published 2010)

How the values were obtained:
[1] = target: cruzain (Trypanosoma cruzi, UniProt P25779); experiment: biochemical; assay type: biochemical; conditions: for % inhibition (DMSO) Cruzain: concentration not given; for activity against cruzain (in words): summary statement
[2] = target: rhodesain (Trypanosoma brucei rhodesiense, UniProt Q95PM0); experiment: Enzymatic inhibition of recombinant rhodesain, fluorogenic Z-Phe-Arg-AMC substrate; assay type: biochemical, T. Brucei; conditions: for % inhibition (DMSO) Rhodesain: concentration not given; for activity against rhodesain (in words): summary statement
rhodesain, sequence (Q95PM0 entry or part of it): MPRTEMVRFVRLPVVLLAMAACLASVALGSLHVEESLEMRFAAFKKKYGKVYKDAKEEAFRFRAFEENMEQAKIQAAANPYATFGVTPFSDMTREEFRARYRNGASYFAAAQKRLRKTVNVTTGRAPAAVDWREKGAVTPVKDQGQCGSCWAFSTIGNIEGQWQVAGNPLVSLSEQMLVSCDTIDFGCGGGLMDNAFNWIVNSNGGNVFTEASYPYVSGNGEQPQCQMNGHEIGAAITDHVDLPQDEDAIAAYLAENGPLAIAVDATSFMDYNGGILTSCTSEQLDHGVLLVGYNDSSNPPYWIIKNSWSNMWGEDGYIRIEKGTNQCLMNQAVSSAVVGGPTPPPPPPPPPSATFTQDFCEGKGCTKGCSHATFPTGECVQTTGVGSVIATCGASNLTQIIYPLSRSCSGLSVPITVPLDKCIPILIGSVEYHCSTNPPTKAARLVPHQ
Method: (§1) Inhibition of cysteine-proteases cruzain, rhodesain, cathepsin B (Tb CatB) and falcipain (FP2) was assessed by quantification of the resulting fluorescence emission of the proteolytic breakdown of synthetic compound Z-Phe-Arg-AMC (Bachem). Inhibitors Ia or Ib were used at concentrations ranging form 10 nM to 10.000 nM (from 500 nM to 10000 nM for Tb CatB); thus, serial dilutions in DMSO were prepared with the minimal concentration of inhibitor Ia or Ib used for calculations and at least 10 times higher than that of the enzyme. These experiments were performed by distributing inhibitor Ia or Ib in 96 wells, fluorescence was recorded on a Flex Station fluorimeter (Molecular Devices), 355 nm excitation and 460 nm emission at 25° C., distributing 100 μl of substrate using a multichannel pipette at a similar volume of the inhibitor enzyme preincubated at 25° C. for 5 minutes. In each series of experiments, the enzyme with DMSO and the enzyme in the presence of the known irreversible inhibitor K11777 (N methyl piperazine-Phe-HPhe-(CH═CHSO2 Ph)), Arris Pharmaceuticals Inc., South San Francisco, Calif.) were used as controls.
(§2) Enzyme inhibition data were similarly determined: recombinant cruzain at 4 nM with 5 μM of Z-Phe-Arg-AMC (Km=1 μM) in buffer A (100 mM of sodium acetate, pH 5.5 with 5 mM of DTT and 0.001% Triton-X 100 (Sigma)); recombinant rhodesain at 4 nM of enzyme and 5 μM Z-Phe-Arg-AMC (Km=1 μM) in buffer A; recombinant Tb CatB at 40 nM of enzyme and 5 μM of Z-Phe-Arg-AMC (Km=60 μM) in buffer A and recombinant FP2 at 4 nM with 5 μM of Z-Phe-Arg-AMC (Km=1 μM) in buffer A. IC50 values were determined by direct reading of the semi-log plot of reaction speed versus inhibitor concentration.

[3] = target: cathepsin B (Tb CatB) (Trypanosoma brucei, UniProt Q6R7Z5); experiment: Enzymatic inhibition of recombinant Tb CatB, fluorogenic Z-Phe-Arg-AMC substrate; assay type: biochemical; conditions: for % inhibition (DMSO) TbCat B: concentration not given; for activity against cathepsin B (in words): summary statement, said to indicate selectivity
cathepsin B (Tb CatB), sequence (Q6R7Z5 entry or part of it): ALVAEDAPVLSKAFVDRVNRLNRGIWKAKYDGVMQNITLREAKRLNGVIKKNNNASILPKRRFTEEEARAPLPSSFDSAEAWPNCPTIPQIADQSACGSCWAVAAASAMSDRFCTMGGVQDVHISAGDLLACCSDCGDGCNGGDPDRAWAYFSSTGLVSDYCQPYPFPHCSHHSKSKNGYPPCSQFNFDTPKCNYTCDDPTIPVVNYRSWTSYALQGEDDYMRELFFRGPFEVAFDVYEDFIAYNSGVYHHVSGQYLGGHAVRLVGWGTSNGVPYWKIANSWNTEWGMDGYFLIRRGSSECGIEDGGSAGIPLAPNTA
Method: as §1, §2

[4] = target: falcipain (FP2) (Plasmodium falciparum, UniProt Q8I6U4); experiment: Enzymatic inhibition of recombinant falcipain (FP2), fluorogenic Z-Phe-Arg-AMC substrate; assay type: biochemical
falcipain (FP2), sequence (Q8I6U4 244-484): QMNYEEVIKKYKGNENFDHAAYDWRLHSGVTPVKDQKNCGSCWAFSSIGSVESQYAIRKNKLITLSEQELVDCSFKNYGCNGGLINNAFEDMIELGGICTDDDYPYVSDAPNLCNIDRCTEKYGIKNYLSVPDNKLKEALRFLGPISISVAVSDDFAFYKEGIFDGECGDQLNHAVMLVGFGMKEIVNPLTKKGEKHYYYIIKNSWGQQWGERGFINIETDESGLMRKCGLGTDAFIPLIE
Method: as §1, with “controls. […]” for “controls.”

[5] = test system: Trypanosoma brucei brucei (Tbb); experiment: Inhibition test on Trypanosoma brucei brucei by ATP-bioluminescence; assay type: cell-based; conditions: concentration not given
Method: Inhibition tests on Trypanosoma brucei brucei were performed by ATP-bioluminescence (Z. B. Mackey et al, Chem. Biol. Drug Des. 2006, 67, pp. 355-363).

cruzain, sequence (P25779 123-467): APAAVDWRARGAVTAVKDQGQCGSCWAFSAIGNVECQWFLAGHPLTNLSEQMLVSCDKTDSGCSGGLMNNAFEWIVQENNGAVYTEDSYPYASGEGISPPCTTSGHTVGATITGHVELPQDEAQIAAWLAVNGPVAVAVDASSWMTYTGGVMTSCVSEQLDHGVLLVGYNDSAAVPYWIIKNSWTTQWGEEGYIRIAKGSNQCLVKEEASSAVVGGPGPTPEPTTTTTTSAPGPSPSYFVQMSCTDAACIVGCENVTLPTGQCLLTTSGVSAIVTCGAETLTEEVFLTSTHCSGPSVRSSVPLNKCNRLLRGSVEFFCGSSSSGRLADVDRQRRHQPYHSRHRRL

SMILES	IC50 [1]	% inhibition (DMSO) Cruzain [1]	activity against cruzain (in words) [1]	IC50 [2]	% inhibition (DMSO) Rhodesain [2]	activity against rhodesain (in words) [2]	IC50 [3]	% inhibition (DMSO) TbCat B [3]	activity against cathepsin B (in words) [3]	IC50 [4]	% inhibition (DMSO) Tbb [5]
CCOC(=O)[C@@H]1O[C@H]1C(=O)[C@H](CCc1ccccc1)NC(=O)[C@H](Cc1ccccc1)NC(=O)OCc1ccccc1 [Compound Ib.1, Ethyl (2R,3R)-3-[(2S)-2-((2S)-2-benzyloxycarbonylamino-3-phenylpropionylamino)-4-phenylbutyryl]oxirane-2-carboxylate]	50 nM	55%	very active	30 nM	80%	very active	400 nM	47%	not against cathepsin B	44 nM	−2%
CCOC(=O)[C@H]1O[C@@H]1C(=O)[C@H](CCc1ccccc1)NC(=O)[C@H](Cc1ccccc1)NC(=O)OCc1ccccc1 [Compound Ia.1, Ethyl (2S,3S)-3-[(2S)-2-((2S)-2-benzyloxycarbonylamino-3-phenylpropionylamino)-4-phenylbutyryl]oxirane-2-carboxylate]	20 nM	93%	very active	3.5 nM	98%	very active	> 1000 nM	51%	not against cathepsin B	71 nM	42%
